# Laboratory results taken from US7612036B2, “Peptoid compounds” (University of Wollongong, priority 2001, dated 2009).
# Test system: Staphylococcus aureus (ATCC 6538P)
# Test: Antibacterial screen (MIC, 96 well microtitre broth dilution) against S. aureus
# Format: cell-based
# Conditions: 37° C. for 18 hours, highest dilution of compound that prevented bacterial growth
# Procedure: General Methods for Antibacterial Screens
# • SA: Staphylococcus aureus • PA: Pseudomonas aeruginosa • KP: Klebsiella pneumoniae • SP: Streptococcus pneumoniae Bacterial Strains Used: • Staphylococcus aureus (ATCC 6538P) • Pseudonmonas aeruginosa (ATCC 27853) • Klebsiella pneumoniae (IP103623) • Streptococcus pneumoniae (IP53146) Culture Media
# Mueller-Hinton Broth Medium (MHB): MHB (Oxoid CM405) was prepared with final concentrations of 1 μg/mL MgCl2 and 2 μg/mL CaCl2. Culture medium was pre-warmed for approximately 2-3 hours at 37° C. before use.
# From thawed cryovials, P. aeruginosa, K. pneumoniae and S. aureus were streaked onto Mueller Hinton Agar (MHA), and S. pneumoniae was streaked onto Blood Agar (BA), and plates were incubated overnight at 37° C. For each bacterial strain, 10 cryovials were prepared by looping several colonies into 0.5 mL of 20% glycerol solution. The cryovials were immediately stored at −140° C.
# A cryovial was removed from −140° C. storage and thawed at room temperature. An MHA plate was streaked with a loopful of bacterial suspension and incubated overnight at 37° C. to create a parent plate (P1). A daughter plate (D1) was streaked from the parent plate and incubated overnight at 37° C. The parent plate was stored at 4° C. A loop of colony from the daughter plate was used to inoculate a 125 mL flask containing 20 mL of Mueller Hinton Broth (MHB) containing 25 μg/mL CaCl2.2H2O and 12.5 μ/mL MgCl2.6H2O. The flask was shaken at 260 rpm for 18 hours at 37° C. on an orbital incubator shaker. The parent plate (P1) was reused within 9 days to generate another daughter plate (D2), which, in turn, was used to inoculate a broth culture. Parent plates were used twice (to generate D1 and D2 plates) before a new one was prepared from the previously thawed cryovial. The second parent plate (P2) was used to generate two additional daughter plates using the procedure outlined above before being discarded. Cryovials were used twice to prepare parent plates (P1 and P2) before being discarded.
# Prepare a 1/10 dilution of Seed Cultures by adding 250 μl of the cultures to 2,250 μl of MHB in a disposable cuvette. Read OD650 and multiply OD650 by a factor of 10 to calculate the optical density of the undiluted culture. Calculate the required dilution factor by dividing the observed OD650 by the standard OD650 for each strain (previously determined in assay optimisation studies).
# Prepare sufficient volumes of the final inoculum cultures in pre-warmed MHB (37° C.) by diluting the standardised cultures to the required final concentration. The final dilutions used for each of the bacterial strains were as follows: • K. pneumoniae—10^6 dilution; • P. aeruginosa—10^6 dilution; • S. aureus—10^8 dilution; • S. pneumoniae—10^4 dilution. Assay Procedure (for 96 well Microtiter Plates)
# Add 50 microliters of liquid medium to each well of a 96 well microtitre plate. Dissolve test samples in liquid medium. Add 50 microliters of test sample in triplicate to the top row of the microtitre plate, and include a vancomycin control set. Also include a compound negative control well set. Allow inoculated culture medium to incubate at 37° C. for 30 minutes, shaking at 130 rpm. Using a multichannel pipette, mix the contents of the first row and transfer 50 microliters of mixed broth solutions to the next row, change tips and repeat until the last row contains diluted compound or control and discard 50 microliters from the last row. Each well should now contain 50 microliters of diluted compound or negative control medium. Using a multistepper pipette add 50 microliters of inoculum to each well of the plate, save for one row containing the compound negative control, to this row add 50 microliters of liquid broth. Incubate plates at 37° C. for 18 hours, shaking at 100 rpm in an environment of approximately 90% relative humidity. Results were recorded as the highest dilution of compound that prevented bacterial growth (MIC).
row,Molecule,MIC
1,"6-Acetamido-8,11-diaza-14-ene-9-(3-guanidinopropyl)-12-methoxycarbonyl-7,10-dioxo-[12](3,6)-1H-carbazolophane HCl (9R,12S) [Example 37]",64 µg/mL
2,"C=CCc1cc2ccccc2c(-c2c(OC)c(CC(NC(C)=O)C(=O)N[C@H](CCCNC(=N)N)C(=O)N[C@@H](CC=C)C(=O)OC)cc3ccccc23)c1OC.Cl (stereo partly drawn) [Example 19A, methyl (aR/S,2S,5R)-8-acetamido-2-allyl-9-[3-(3′-allyl-2,2′-dimethoxy-1,1′-binaphthyl)]-3,6-diaza-5-(3-guanidinopropyl)-4,7-dioxononanoate hydrochloride]",4 µg/mL
3,"6-Acetamido-8,11-diaza-9-(3-guanidinopropyl)-12-methoxycarbonyl-7,10-dioxo-[12](3,6)-1H-carbazolophane HCl (9S,12S) [Example 36]",32 µg/mL
4,"6-Acetamido-8,11-diaza-9-(3-guanidinopropyl)-12-methoxycarbonyl-7,10-dioxo-[12](3,6)-1H-carbazolophane HCl (9R,12S) [Example 38]",32 µg/mL
5,"CCCc1ccc2[nH]c3ccc(CC(NC(C)=O)C(=O)N[C@H](CCCCN)C(=O)N[C@@H](CCC)C(=O)OC)cc3c2c1.Cl (single isomer, unassigned) [44 (another isomer)]",64 µg/mL
6,"COC(=O)C1CC=CCc2cc3ccccc3c(c2OC)-c2c(OC)c(cc3ccccc23)CC(NC(C)=O)C(=O)NC(CCCCN)C(=O)N1.Cl (single isomer, unassigned) [15 (one isomer)]",8 µg/mL
7,"COC(=O)C1CCCCc2cc3ccccc3c(c2OC)-c2c(OC)c(cc3ccccc23)CC(NC(C)=O)C(=O)NC(CCCCN)C(=O)N1.Cl [Example 15A, (aR/S,7R,10S)-4-acetamido-7-(4-aminobutyl)-6,9-diaza-10-methoxycarbonyl-1(1,3),2(1,3)-di(2-methoxynaphthalena)-5,8-dioxocyclotetradecaphane hydrochloride]",16 µg/mL
8,"6-Acetamido-9-(4-aminobutyl)-8,11-diaza-12-methoxycarbonyl-7,10-dioxo-[12](3,6)-1H-carbazolophane HCl (9R,12S) [Example 42]",64 µg/mL
9,"CCCc1ccc2[nH]c3ccc(CC(NC(C)=O)C(=O)N[C@H](CCCCN)C(=O)N[C@@H](CCC)C(=O)OC)cc3c2c1.Cl (single isomer, unassigned) [44 (one isomer)]",32 µg/mL
10,"6-Acetamido-9-(4-aminobutyl)-8,11-diaza-1-tert-butoxycarbonyl-14-ene-12-methoxycarbonyl-7,10-dioxo-[12](3,6)-1H-carbazolophane HCl (9S,12S) [Example 39A]",32 µg/mL
11,"C=CCc1cc2ccccc2c(-c2c(OC)c(CC(NC(C)=O)C(=O)N[C@H](CCCCNC(=O)OC(C)(C)C)C(=O)N[C@@H](CC=C)C(=O)OCc3ccccc3)cc3ccccc23)c1OC (stereo partly drawn) [Example 13A, benzyl (aR/S,2S,5R)-8-acetamido-2-allyl-9-{3-[3′-allyl-2,2′-dimethoxy-1,1′-binaphthyl]}-3,6-diaza-5-(4-{[(tert-butoxy)carbonyl]amino}butyl)-4,7-dioxononanoate]",4 µg/mL
12,"methyl (aR/S,2S,5R)-2-allyl-5-[2-({[(2′-allyloxy-1,1′-binaphthoxymethyl]carbonyl}amino)-3-aza-9-guanidino-4-oxononanoate hydrochloride [Example 101]",8 µg/mL
13,"6-Acetamido-9-(4-aminobutyl)-8,11-diaza-12-methoxycarbonyl-7,10-dioxo-[12](3,6)-1H-carbazolophane HCl (9S,12S) [Example 40]",64 µg/mL
14,"(aR/S,7R,10S)-4-acetamido-6,9-diaza-10-benzyloxycarbonyl-7-(4-{[(tert-butoxy)carbonyl]amino}butyl)-1(1,3),2(1,3)-di(2-methoxynaphthalena)-5,8-dioxocyclotetradecaphane-12-ene [Example 15B]",16 µg/mL
15,"C=CCOc1ccc2ccccc2c1-c1c(OCCCC(=O)N[C@H](CCCCNC(=N)N)C(=O)N[C@@H](CC=C)C(=O)OC)ccc2ccccc12.Cl [Example 111, methyl (aS/R,2S,5R)-2-allyl-10-(2′-allyloxy-1,1′-binaphth-2-oxy)-3,6-diaza-5-(4-guanidinobutyl)-4,7-dioxodecanoate hydrochloride]",8 µg/mL
16,"COC(=O)C1CCC=COc2ccc3ccccc3c2-c2c(ccc3ccccc23)OCCCC(=O)NC(CCCCNC(=N)N)C(=O)N1.Cl [Example 113, (aR/S,9R,12S)-8,11-diaza-9-(4-guanidinobutyl)-12-methoxycarbonyl-1(1,2),2(1,2)-dinaphthalena-3,17-dioxa-7,10-dioxoheptadecaphane-15-ene hydrochloride]",8 µg/mL
17,"COC(=O)[C@@H]1CC=CCOc2ccc3ccccc3c2-c2c(ccc3ccccc23)OCC(=O)N[C@H](CCCCNC(=N)N)C(=O)N1.Cl [Example 103, (aR,S,7R,10S)-6,9-diaza-3,15-dioxa-5,8-dioxo-7-(4-guanidinobutyl)-10-methoxycarbonyl-1(1,2),2(1,2)-dinaphthalenacyclopentadecaphane-12-ene hydrochloride]",8 µg/mL

# Same assay, conditions: 37° C. for 18 hours, highest dilution of compound that prevented bacterial growth, hydrochloride
row,Molecule,MIC
1,"COC(=O)C1CC=CCc2cc3ccccc3c(c2OC)-c2c(OC)c(cc3ccccc23)CC(NC(C)=O)C(=O)NC(CCCNC(=N)N)C(=O)N1.Cl (single isomer, unassigned) [21A (another isomer)]",64 µg/mL
2,"COC(=O)C1CC=CCc2cc3ccccc3c(c2OC)-c2c(OC)c(cc3ccccc23)CC(NC(C)=O)C(=O)NC(CCCNC(=N)N)C(=O)N1.Cl (single isomer, unassigned) [21A (one isomer)]",16 µg/mL

# Same assay, conditions: Staphylococcus aureus, ATCC6538P, 37° C. for 18 hours, highest dilution of compound that prevented bacterial growth, read-out: MIC
row,Molecule,MIC
1,COC(=O)[C@@H]1C/C=C/COc2ccc3ccccc3c2-c2c(ccc3ccccc23)OCCCC(=O)N[C@H](CCCCN)C(=O)N1.Cl [Example 109],64 µg/mL
2,C=CCOc1ccc2ccccc2c1-c1c(OCC(=O)N[C@H](CCCCN)C(=O)N[C@@H](CC=C)C(=O)OC)ccc2ccccc12.Cl [Example 97],4 µg/mL
3,"C=CCOc1ccc2ccccc2c1-c1c(OCCCC(=O)N[C@H](CCCCN)C(=O)N[C@@H](CC=C)C(=O)OC)ccc2ccccc12.Cl [Example 107, methyl (aS/R,2S,5R)-2-allyl-10-(2′-allyloxy-1,1′-binaphth-2-oxy)-5-(4-aminobutyl)-3,6-diaza-4,7-dioxodecanoate hydrochloride]",16 µg/mL

# Test system: not given
# Test: not given
# Conditions: not given
row,Molecule,melting point
1,C=CC[C@H](NC(=O)[C@H](CCCCN)NC(=O)Cc1cn(CC=C)c2ccccc12)C(=O)OC,103 to 106 °C

# Test system: D-Ala-D-lactate terminus of the peptidoglycan
# Test: not given
# Conditions: D-Ala-D-lactate terminus versus D-Ala-D-Ala terminus; cited from earlier work
row,Molecule,decrease in affinity
1,CN[C@H](CC(C)C)C(=O)N[C@H]1C(=O)N[C@@H](CC(N)=O)C(=O)N[C@H]2C(=O)N[C@H]3C(=O)N[C@H](C(=O)N[C@H](C(=O)O)c4cc(O)cc(O)c4-c4cc3ccc4O)[C@H](O)c3ccc(c(Cl)c3)Oc3cc2cc(c3O[C@@H]2O[C@H](CO)[C@@H](O)[C@H](O)[C@H]2O[C@H]2C[C@](C)(N)[C@H](O)[C@H](C)O2)Oc2ccc(cc2Cl)[C@H]1O [Vancomycin],ca. 1000 fold

# Test system: not given
# Test: not given
# Conditions: cited from earlier work
row,Molecule,toxicity in mice
1,Cl.Cl.NCC(O)CC1NC(=O)C(N)Cc2cc(ccc2O)-c2ccc(O)c(c2)C(O)C(C(=O)O)NC1=O (stereo not shown) [Biphenomycin A],low toxicity
